The target in the assay is T1, Recombinant human H-PGDS (Homo sapiens, UniProt O60760).
T1 construct: made in house; host or cells: E. coli
The assay is described as follows: H-PGDS inhibitory activity (prostaglandin D2 production from prostaglandin H2, measured by LC-MS/MS). Format: biochemical. To be noted: recombinant human H-PGDS 1.0 nM expressed in E. coli; prostaglandin H2 25 μM; preincubated 15 minutes on ice, reacted on ice for 1 minute; concentration that inhibits prostaglandin D2 production by 50%. In a few lines: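 PGD2 formed from 25 µM prostaglandin H2 during a 1-min on-ice reaction was measured by LC-MS/MS after an FeCl2/citric acid stop. The enzyme was 1.0 nM E. coli-expressed human H-PGDS in Tris-HCl pH 8.0 buffer with MgCl2, reduced glutathione and γ-globulin, preincubated with compound for 15 min on ice. Production was normalised to DMSO controls minus the no-enzyme background.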

T1 sequence (O60760 whole entry): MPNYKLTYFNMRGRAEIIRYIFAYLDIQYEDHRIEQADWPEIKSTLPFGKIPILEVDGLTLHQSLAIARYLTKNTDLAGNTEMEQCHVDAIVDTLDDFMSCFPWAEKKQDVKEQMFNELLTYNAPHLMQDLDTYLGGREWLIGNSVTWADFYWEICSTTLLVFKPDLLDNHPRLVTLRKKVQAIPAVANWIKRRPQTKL

As to `O=C(NC1CC2(CNC2)C1)c1ccc(-c2nccc3occc23)cc1` [Example 209, 4-(furo[3,2-c]pyridin-4-yl)-N-(2-azaspiro[3.3]heptan-6-yl)benzamide], the IC50 came out at 39 nM.

`Cc1ccnc(N2CCC(NC(=O)c3ccc(-c4nccc5occc45)cc3)CC2)n1` [Example 155, 4-(furo[3,2-c]pyridin-4-yl)-N-[1-(4-methylpyrimidin-2-yl)piperidin-4-yl]benzamide]: the IC50 is 1.5 nM.

`O=C(N[C@@H]1CC[C@H](O)C1)c1ccc(-c2nccc3occc23)cc1` (relative stereo) [Example 267, 4-(furo[3,2-c]pyridin-4-yl)-N-(cis-3-hydroxycyclopenthyl)benzamide]: the IC50 came out at 3.1 nM.

Regarding `O=C(NCc1ccncc1)c1ccc(-c2nccc3[nH]ccc23)cc1` [Example 11, N-(pyridin-4-ylmethyl)-4-(1H-pyrrolo[3,2-c]pyridin-4-yl)benzamide], the IC50 came out at 1.7 nM.

On to `Cc1ccc(N2CCC(NC(=O)c3ccc(-c4nccc5occc45)cc3)CC2)nc1` [Example 151, 4-(furo[3,2-c]pyridin-4-yl)-N-[1-(5-methylpyridin-2-yl)piperidin-4-yl]benzamide], for which the half-inhibitory concentration (IC50) turned out to be 1.4 nM.

For `CC(C)(O)[C@H]1CC[C@H](NC(=O)c2ccc(-c3nccc4occc34)c(C#N)c2)CC1` [Example 133, 3-cyano-4-(furo[3,2-c]pyridin-4-yl)-N-[trans-4-(2-hydroxypropan-2-yl)cyclohexyl]benzamide], the IC50 was 16 nM.

`CC(C)O[C@H]1CC[C@H](NC(=O)c2ccc(-c3nccc4occc34)cc2)CC1` [Example 288, 4-(furo[3,2-c]pyridin-4-yl)-N-(trans-4-isopropoxycyclohexyl)benzamide]: the IC50 worked out at 1.3 nM.

Turning to `O=C(Nc1ccccc1F)c1ccc(-c2nccc3occc23)cc1` [Example 110, N-(2-fluorophenyl)-4-(furo[3,2-c]pyridin-4-yl)benzamide], the IC50 came out at 5.7 nM.

Turning to `O=C(N[C@H]1CC[C@H](O)CC1)c1ccc(-c2nccc3occc23)c(F)c1` [Example 325, 3-fluoro-4-(furo[3,2-c]pyridin-4-yl)-N-(trans-4-hydroxycyclohexyl)benzamide], the IC50 is 2.3 nM.

For the compound `O=C(NC1CCN(c2ccncc2)CC1)c1ccc(-c2nccc3occc23)cc1` [Example 123, 4-(furo[3,2-c]pyridin-4-yl)-N-[1-(pyridin-4-yl)piperidin-4-yl]benzamide], the IC50 was 1.8 nM.

For the compound `CC(C)(O)C1CC2(CC(NC(=O)c3ccc(-c4nccc5occc45)cc3)C2)C1` (centres unmarked) [Example 122, 4-(furo[3,2-c]pyridin-4-yl)-N-[6-(2-hydroxypropan-2-yl)spiro[3.3]heptan-2-yl]benzamide], the IC50 was determined as 1.3 nM.

On to `O=C(NCC1CCCCC1)c1ccc(-c2nccc3[nH]ccc23)cc1` [Example 19, N-(cyclohexyl-methyl)-4-(1H-pyrrolo[3,2-c]pyridin-4-yl)benzamide], for which the IC50 was found to be 1 nM.

Take `O=C(NC12CC(O)(C1)C2)c1ccc(-c2nccc3occc23)cc1` [Example 278, 4-(furo[3,2-c]pyridin-4-yl)-N-(3-hydroxybicyclo[1.1.1]pentan-1-yl)benzamide]: the IC50 is 3.3 nM.

`CC(C)(O)[C@H]1CC[C@H](NC(=O)c2ccc(-c3nccc4[nH]ccc34)cc2)CC1` [Example 2, N-[trans-4-(2-hydroxypropan-2-yl)cyclohexyl]-4-(1H-pyrrolo[3,2-c]pyridin-4-yl)benzamide]: the IC50 amounted to 0.75 nM.

For the compound `Cc1cc2occc2c(-c2ccc(C(=O)N[C@H]3CCN(c4ncccn4)C3)cc2)n1` [Example 332, (S)-4-(6-methylfuro[3,2-c]pyridin-4-yl)-N-[1-(pyrimidin-2-yl)pyrrolidin-3-yl]benzamide], the IC50 was found to be 1.6 nM.

`O=C(N[C@H]1CC[C@H](C2(O)CC2)CC1)c1ccc(-c2nccc3occc23)cc1` [Example 257, 4-(furo[3,2-c]pyridin-4-yl)-N-[trans-4-(1-hydroxycyclopropyl)cyclohexyl]benzamide]: the IC50 amounted to 1.6 nM.

As to `NS(=O)(=O)c1ccc(CCNC(=O)c2ccc(-c3nccc4[nH]ccc34)cc2)cc1` [Example 47, 4-(1H-pyrrolo[3,2-c]pyridin-4-yl)-N-(4-sulfamoylphenethyl) benzamide], the IC50 is 1.1 nM.

Consider `O=C(NC1CCN(c2ncc(Br)c(=O)[nH]2)CC1)c1ccc(-c2nccc3occc23)cc1` [Example 182, N-[1-(5-bromo-6-oxo-1,6-dihydropyrimidin-2-yl)piperidin-4-yl]-4-(furo[3,2-c]pyridin-4-yl)benzamide], for which the IC50 is 2.3 nM.

On to `O=C(NCc1cccnc1)c1ccc(-c2nccc3[nH]ccc23)cc1` [Example 10, N-(pyridin-3-ylmethyl)-4-(1H-pyrrolo[3,2-c]pyridin-4-yl)benzamide], for which the IC50 was determined as 1.7 nM.

For `O=C(NCc1cc[nH]n1)c1ccc(-c2nccc3[nH]ccc23)cc1` [Example 54, N-[(1H-pyrazol-3-yl)methyl]-4-(1H-pyrrolo[3,2-c]pyridin-4-yl)benzamide], the IC50 came to 1.2 nM.

In the case of `COc1cc(OC)nc(N2CCC(NC(=O)c3ccc(-c4nccc5occc45)cc3)CC2)n1` [Example 163], the IC50 came out at 2.6 nM.

`O=C(NCc1cccnc1)c1ccc(-c2nccc3occc23)cc1` [Example 77, 4-(furo[3,2-c]pyridin-4-yl)-N-(pyridin-3-ylmethyl) benzamide]: the IC50 came to 24 nM.

For the compound `O=C(NC1CCN(c2cccc(F)n2)CC1)c1ccc(-c2nccc3occc23)cc1` [Example 147, N-[1-(6-fluoropyridin-2-yl)piperidin-4-yl]-4-(furo[3,2-c]pyridin-4-yl)benzamide], the IC50 amounted to 1 nM.

As to `CC(C)(O)C(=O)N1CCC(NC(=O)c2ccc(-c3nccc4occc34)cc2)CC1` [Example 245, 4-(furo[3,2-c]pyridin-4-yl)-N-[1-(2-hydroxy-2-methylpropanoyl)piperidin-4-yl]benzamide], the IC50 came out at 1.4 nM.

Turning to `Cc1cc2occc2c(-c2ccc(C(=O)NC34CCC(O)(CC3)CC4)cc2)n1` [Example 343, N-(4-hydroxybicyclo[2.2.2]octan-1-yl)-4-(6-methylfuro[3,2-c]pyridin-4-yl)benzamide], the IC50 amounted to 1.2 nM.

As to `O=C(NCC1CCOC1)c1ccc(-c2nccc3occc23)cc1` (centres unmarked) [Example 81, 4-(furo[3,2-c]pyridin-4-yl)-N-[(tetrahydrofuran-3-yl)methyl] benzamide], the half-maximal inhibitory concentration (IC50) was 11 nM.

Consider `CC(=O)[C@@H]1CC[C@@H](NC(=O)c2ccc(-c3nccc4occc34)cc2)CO1` [Example 213, N-[(3R,6S)-6-acetyltetrahydro-2 H-pyran-3-yl]-4-(furo[3,2-c]pyridin-4-yl)benzamide], for which the IC50 was 4.3 nM.

Take `C=Cc1cnc(-c2ccc(C(=O)N[C@H]3CC[C@H](C(C)(C)O)CC3)cc2)c2ccoc12` [Example 137, N-[trans-4-(2-hydroxypropan-2-yl)cyclohexyl]-4-(7-vinylfuro[3,2-c]pyridin-4-yl)benzamide]: the IC50 amounted to 12 nM.

Regarding `O=C(N[C@H]1CC[C@H](N2CC(F)(F)C2)CC1)c1ccc(-c2nccc3occc23)cc1` [Example 304, N-[trans-4-(3,3-difluoroazetidin-1-yl)cyclohexyl]-4-(furo[3,2-c]pyridin-4-yl)benzamide], the IC50 stood at 9.2 nM.

For the compound `O=C(NCC(O)CO)c1ccc(-c2nccc3[nH]ccc23)cc1` (centres unmarked) [Example 34, N-(2,3-dihydroxypropyl)-4-(1H-pyrrolo[3,2-c]pyridin-4-yl)benzamide], the IC50 was determined as 2.4 nM.

As for `CO[C@@H]1CN(c2ncc(CO)cn2)C[C@H]1NC(=O)c1ccc(-c2nccc3occc23)cc1` [Example 205, 4-(furo[3,2-c]pyridin-4-yl)-N-((3R,4R)-1-[5-(hydroxymethyl)pyrimidin-2-yl]-4-methoxypyrrolidin-3-yl)benzamide], the IC50 came to 5.6 nM.

In the case of `O=C(N[C@H]1CC[C@H](N2CCC(F)(F)C2)CC1)c1ccc(-c2nccc3occc23)cc1` [Example 306, N-[trans-4-(3,3-difluoropyrrolidin-1-yl)cyclohexyl]-4-(furo[3,2-c]pyridin-4-yl)benzamide], the IC50 was 1.8 nM.

In the case of `O=C(NC1CCCC1)c1ccc(-c2nccc3[nH]ccc23)cc1` [Example 12, N-cyclopenthyl-4-(1H-pyrrolo[3,2-c]pyridin-4-yl)benzamide], the IC50 was determined as 1.1 nM.

As to `Cc1cc2c(-c3ccc(C(=O)N[C@H]4CC[C@H](C(C)(C)O)CC4)cc3)nccc2o1` [Example 128, N-[trans-4-(2-hydroxypropan-2-yl)cyclohexyl]-4-(2-methylfuro[3,2-c]pyridin-4-yl)benzamide], the IC50 was 3.5 nM.

Turning to `Cc1cnc(-c2ccc(C(=O)N[C@H]3CC[C@H](C(C)(C)O)CC3)cc2)c2ccoc12` [Example 129, N-[trans-4-(2-hydroxypropan-2-yl)cyclohexyl]-4-(7-methylfuro[3,2-c]pyridin-4-yl)benzamide], the IC50 was found to be 2.4 nM.

As to `O=C(N[C@H]1CC[C@H](OCC2(O)CC2)CC1)c1ccc(-c2nccc3occc23)c(F)c1` [Example 347, 3-fluoro-4-(furo[3,2-c]pyridin-4-yl)-N-(trans-4-[(1-hydroxycyclopropyl)methoxy]cyclohexyl)benzamide], the IC50 stood at 2 nM.

Turning to `CC(=O)N[C@H]1CC[C@H](NC(=O)c2ccc(-c3nccc4occc34)cc2)CC1` [Example 296, N-(trans-4-acetamidocyclohexyl)-4-(furo[3,2-c]pyridin-4-yl)benzamide], the half-maximal inhibitory concentration (IC50) is 2.9 nM.

Regarding `Cc1nn(C)cc1CNC(=O)c1ccc(-c2nccc3[nH]ccc23)cc1` [Example 39, N-[(1,3-dimethyl-1H-pyrazol-4-yl)methyl]-4-(1H-pyrrolo[3,2-c]pyridin-4-yl)benzamide], the IC50 stood at 1.1 nM.

Source of the values: patent publication US20230339937A1, “CONDENSED RING COMPOUNDS THAT INHIBIT H-PGDS” (SATO PHARMACEUTICAL CO., LTD., priority 2020, published 2023).
